Source: patent US7723328B2, “Methods of facilitating cell survival using neurotrophin mimetics” (The University of North Carolina at Chapel Hill, priority 2005, dated 2010)
Entries after “also recorded” stand apart in the source; their conditions may differ.

Key:
[1] = biological target: T1, p75^NTR-Fc (Homo sapiens, UniProt P08138); assay: NGF/p75NTR-Fc binding by NGF ELISA, Gaddum/Schild fit
T1 construct: purchased R&D Systems
Description: Briefly, 96-well plates were incubated with 0.1 pmol (at 1 nM) of p75/Fc or TrkA/Fc recombinant protein obtained from R&D System (Minneapolis, Minn., United States of America) overnight at 4° C. followed by incubation with blocking buffer for 1 hour at room temperature. […] Plates were then washed five times with Tris-buffered saline (TBS) containing 0.05% Tween-20 and incubated with anti-NGF rabbit polyclonal antibody overnight at 4° C. Following five washes with TBS, wells were incubated for 2.5 hours at room temperature with anti-rabbit IgG HRP conjugate and washed five times. 3,3′,5,5′-tetramethyl-benzidine substrate was added and the optical density measured at 450 nm.
A regression analysis of NGF-p75^NTR binding in the presence of the p75-binding compounds was performed. The data was fit using the Nonlinear Regression module of Sigmaplot, to a modification of the Gaddum/Schild equation (adapted from Motulsky, H. J., and Christopoulos. A. (2003) A Practical Guide to Curve Fitting, 2nd edn. (San Diego, Calif., GraphPad Software, Inc.): […]

[2] = biological target: T2, p75^NTR-expressing 3T3 cells (Homo sapiens, UniProt P08138); assay: p75NTR antibody (Ab 9651) competition on 3T3 cells, western blot; format: binding; conditions: 100 nM compound, 90 min, 4° C.
T2 construct: host or cells: NIH3T3 fibroblasts
T2 sequence (P08138 29-427): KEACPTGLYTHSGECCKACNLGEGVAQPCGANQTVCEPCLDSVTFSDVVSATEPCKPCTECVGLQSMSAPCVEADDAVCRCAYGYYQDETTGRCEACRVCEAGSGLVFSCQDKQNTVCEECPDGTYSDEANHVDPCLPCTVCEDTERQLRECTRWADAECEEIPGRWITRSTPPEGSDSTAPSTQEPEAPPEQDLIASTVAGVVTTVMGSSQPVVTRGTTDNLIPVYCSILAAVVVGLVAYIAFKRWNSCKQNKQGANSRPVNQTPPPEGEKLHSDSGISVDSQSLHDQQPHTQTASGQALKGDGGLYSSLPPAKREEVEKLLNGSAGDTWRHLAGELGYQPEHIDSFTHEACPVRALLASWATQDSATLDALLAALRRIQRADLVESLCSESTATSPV
Description: NIH3T3 fibroblasts expressing either null vector or p75^NTR (Huang, C. S. et al. (1999) J Biol Chem 274, 36707-36714) were obtained from Dr. William Mobley (Stanford University, Calif., United States of America). Cells were grown in monolayers, harvested in PBS with 2 mM EDTA, pelleted, and resuspended in ice-cold DMEM HEPES with 1 mg/ml BSA. 6-9×10^6 cells from one confluent 6-well plate were used for each experimental point.
For binding analysis, p75^NTR antibody (1:100) was allowed to bind in the presence or absence of 100 nM p75-binding compounds for 90 minutes at 4° C. with gentle rotation, followed by four washes in PBS. The final cell pellet was resuspended in lysis buffer.
Western blots were performed as described above. To detect the presence of p75^NTR antibody, blots were probed with horseradish peroxidase-linked goat anti-rabbit IgG obtained from Amersham/Pharmacia Biotech (Piscataway, N.J., United States of America). Signals were detected by the ECL chemiluminescence system obtained from Amersham Biosciences (Piscataway, […]., United States of America). To control for variation in protein loading, the blot was stripped and reprobed with β-actin monoclonal antibody obtained from Sigma (St. Louis, Mo., United States of America).

[3] = test system: NFκB-p65; assay: NFκB-p65 phosphorylation western blot in hippocampal cultures; format: cell-based, mouse; conditions: 20 nM
Description: For assays of Trk, AKT, NFκB, and ERK activation, hippocampal neurons derived from E16-17 mice were cultured in poly-L-lysine coated six-well plates (Corning, Inc., Corning, N.Y., United States of America) in DMEM containing 10% FBS, followed by incubation in serum-free DMEM for 2 hours before addition of neurotrophins or compounds. At the indicated time points, neurons were harvested in lysis buffer consisting of: 20 mM Tris, pH 8.0, 137 mM NaCl, 1% Igepal CA-630, 10% glycerol, 1 mM PMSF, 10 μg/ml aprotinin, 1 μg/ml leupeptin, 500 μM orthovanadate (Zhou, J., Valletta, J. S., Grimes, M. L., Mobley, W. C. (1995) J Neurochem 65, 1146-1156).
Lysates were centrifuged, the supernatant collected, and protein concentrations determined using the BCA Protein Assay Reagent obtained from Pierce (Rockford, Ill., United States of America). Western blots were performed as described previously (Yang, T. et al. (2003) J Neurosci 23, 3353-3363). Western blot signals were detected using the ECL Chemiluminescence System obtained by Amersham (Piscataway, N.J., United States of America) (Yang, T. et al. (2003) J Neurosci 23, 3353-3363).

[4] = test system: mature oligodendrocytes; assay: Oligodendrocyte cell death assay (MBP/TUNEL) with or without proNGF; format: cell-based, rat; conditions: 24 h
Description: Cortical oligondendrocytes from rat pups were prepared as previously described (Yoon et al. (1998) J Neurosci 18, 3273-3281, Harrington, A. W., Kim, J. Y., Yoon, S. O. (2002) J Neurosci 22, 156-166). Cells were treated with recombinant, cleavage-resistant proNGF at 0.05 nM (2.8 ng/ml). Controls were treated with equivalent volumes of proNGF purification buffer containing 350 mM imidazole. 24 hours after treatment, the cells were fixed and processed for MBP and TUNEL staining as previously described (Beattie, M. S. et al. (2002) Neuron 36, 375-386). 200-250 cells were counted per well, for a minimum of 600 cells per experimental condition.

[5] = test system: E17 hippocampal neurons; assay: Aβ-induced death of hippocampal neurons; format: cell-based; conditions: Aβ1-42 10 μM; NGF at 100 pg/ml
Description: Using previously well established protocols, Aβ was preincubated for 3 days in water to allow formation of oligomers. E17 hippocampal neurons were incubated for 5 days to allow for maturation prior to addition of Aβ with test compounds.

T1 sequence (P08138 with tags, fused parts or gaps limits assumed): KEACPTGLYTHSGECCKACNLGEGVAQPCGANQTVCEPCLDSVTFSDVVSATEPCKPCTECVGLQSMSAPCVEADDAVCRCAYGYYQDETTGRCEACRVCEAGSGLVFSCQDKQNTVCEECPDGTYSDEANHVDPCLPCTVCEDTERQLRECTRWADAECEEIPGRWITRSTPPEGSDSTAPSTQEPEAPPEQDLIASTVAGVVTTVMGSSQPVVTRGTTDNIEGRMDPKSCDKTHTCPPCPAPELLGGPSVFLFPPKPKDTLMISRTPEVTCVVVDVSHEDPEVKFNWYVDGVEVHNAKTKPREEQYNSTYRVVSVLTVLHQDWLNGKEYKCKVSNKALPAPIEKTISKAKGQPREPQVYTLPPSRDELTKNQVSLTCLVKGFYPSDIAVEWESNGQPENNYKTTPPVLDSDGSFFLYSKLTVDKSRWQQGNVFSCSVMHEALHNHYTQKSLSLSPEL

CCC(C)C(N)C(=O)NCCN1CCOCC1 (stereo not drawn) [Compound 4]
A2 relative to EC50 of biologic effect [1]: nearly four orders of magnitude greater
compound concentration at which binding curve differs from 0 nM curve (P<0.0001) ([1]; ANOVA with post-hoc Bonferroni/Dunn): ≥ 500 nM
Schild coefficient ([1]; Gaddum-Schild fit): 0.58 +/−0.04
shift of the NGF/p75NTR-Fc binding curve ([1]; increasing compound concentrations): significantly to the right
displacement of anti-p75NTR Ab 9651 [2]: significantly displaced
increase in NFκB-p65 phosphorylation [3]: approximately 1.5 fold
inhibition of proNGF-induced oligodendrocyte death ([4]; 2.8 ng/ml (0.05 nM) proNGF): significantly inhibited; also recorded: blocked cell death
promotion of oligodendrocyte cell death by compound alone ([4]; absence of proNGF): did not promote cell death
protection against Aβ1-42-induced death [5]: entirely block
